Laboratory results from US20260048036A1, “CRYSTALLINE FORMS OF A GLUCOSYLCERAMIDE SYNTHASE INHIBITOR AND USES THEREOF” (ACELINK THERAPEUTICS, INC., priority 2022, published 2026).
≈ marks a conversion by molar mass, not a printed value.

Assays:
physchem = conditions: thermodynamic from solid
[1] = biological target: T1, Glucosylceramide synthase (GCS) (Homo sapiens, UniProt Q16739); test: GCS cell-based assay with live K-562 cells; conditions: C6-NBD-glucosylceramide by LC-MS/MS
T1 construct: The MDCK, K-562, and L6 cell lines all endogenously express GCS enzyme; host or cells: K-562 human leukemia cells, live
T1 sequence (Q16739 1-394): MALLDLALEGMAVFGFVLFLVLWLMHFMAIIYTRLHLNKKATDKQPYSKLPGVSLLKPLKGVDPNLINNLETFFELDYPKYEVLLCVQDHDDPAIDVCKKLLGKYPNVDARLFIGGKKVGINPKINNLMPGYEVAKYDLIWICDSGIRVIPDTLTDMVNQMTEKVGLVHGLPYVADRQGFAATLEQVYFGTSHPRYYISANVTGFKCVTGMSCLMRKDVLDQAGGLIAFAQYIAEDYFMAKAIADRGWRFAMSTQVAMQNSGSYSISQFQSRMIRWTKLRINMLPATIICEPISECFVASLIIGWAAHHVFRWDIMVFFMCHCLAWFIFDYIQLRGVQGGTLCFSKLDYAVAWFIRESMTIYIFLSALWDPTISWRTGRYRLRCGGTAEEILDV
Source text: The reaction product, C6-NBD-glucosylceramide, could then be detected and quantified by LC-MS/MS. The inventors used this method to test and validate the effect of various GCS inhibitors on GCS enzyme activity from different species.
The GCS enzyme activity was detected by using the fluorescent substrate, C6-NBD-ceramide, and monitoring the formation of the fluorescent reaction product, C6-NBD-glucosylceramide. First, the inventors used cell lysate derived from a canine kidney cell line (MDCK, ATCC Cat #CCL-34™) as the source of GCS and tested the inhibitory activity of several control and test compounds.
The quantitative analysis of C6-NBD-glucosylceramide was performed on a Shimadzu ultra-fast liquid chromatography coupled with API 4000 mass spectrometer. Analyst 1.5 software packages were used to control the LC-MS/MS system, as well as for data acquisition and processing.
The C6-NBD-glucosylceramide reading was normalized first by dividing the peak area of C6-NBD-glucosylceramide with the peak area of the internal standard, and then the amount was calculated according to the standard curve generated in the same assay run. For the cell based assay results, the amount of C6-NBD-glucosylceramide was also normalized by the protein concentration of the cell samples. […]

[2] = 50 mM acetate buffer, pH 4.5, 37 °C, pH 4.5, aqueous buffer
[3] = 50 mM phosphate buffer, pH 6.8, 37 °C, pH 6.8, aqueous buffer

Question: For `O=C(N[C@H](CN1CCCC1)[C@H](O)c1ccc(OC2CC2)c(Cl)c1)/C(=N/O)c1ccc2cc(Cl)ccc2c1` [Crystalline Form A of Compound 1], which solubility at 2 h (physchem; [2]) is on record?
Answer: The solubility at 2 h was 0.23 mg/mL (≈ 424 µM).

Question: What about the solubility at 24 h (physchem; [2]) of the same compound?
Answer: Its solubility at 24 h is 0.21 mg/mL (≈ 387 µM).

Question: And the solubility at 2 h (physchem; [3])?
Answer: Its solubility at 2 h is 0.01 mg/mL (≈ 18.4 µM).

Question: What about the solubility at 24 h (physchem; [3]) of the same compound?
Answer: The solubility at 24 h was 0.005 mg/mL (≈ 9.22 µM).

Question: What about the solubility at 24 h (physchem; 0.1N HCl, pH 1.2, 37 °C, pH 1.2, simulated gastric fluid) of the same compound?
Answer: Its solubility at 24 h is 0.97 mg/mL (≈ 1790 µM).

Question: And the solubility at 2 h (physchem; FaSSIF-V1, 37 °C, pH 6.5, fassif)?
Answer: The solubility at 2 h was 0.03 mg/mL (≈ 55.3 µM).

Question: And the solubility at 2 h (physchem; FeSSIF-V1, 37 °C, pH 5, fessif)?
Answer: The solubility at 2 h was 1.97 mg/mL (≈ 3630 µM).

Question: What about the solubility at 24 h (physchem; FeSSIF-V1, 37 °C, pH 5, fessif) of the same compound?
Answer: Its solubility at 24 h is greater than 2 mg/mL.

Question: And the solubility at 2 h (physchem; SGF, 37 °C, pH 2, simulated gastric fluid)?
Answer: Its solubility at 2 h is 1.16 mg/mL (≈ 2140 µM).

Question: What about the IC50 [1] of the same compound?
Answer: Its IC50 is 6.15 nM.
